# Data reported in patent publication US4935425A, “4H-quinolizin-4-ones for treatment of diseases associated with immunoglobulin e-antibody formation” (Kissei Pharmaceutical Co., Ltd., priority 1987, dated 1990).
# Assays:
# IgE = experiment: Determination of IgE produced in in vitro culture of spleen cells from DNP-As immunized mice (ELISA); type: cell-based, BALB/c mice; conditions: Mus musculus, 96 h, 4 days culture, 37° C.; for inhibition at 20 µg/mL: 20 μg/ml; for inhibition at 10 µg/mL: 10 μg/ml
# Method: (§1) And the inhibitory activities of the quinolizinone derivative of formula (I) are further confirmed by the determination of serum concentrations of Igs in BALB/c mice which are immunized by DNP-As according to a procedure described in Immunology, Vol 21, pp 11-12, 1971.
# (§2) BALB/c mice were immunized intraperitoneally with 5 μg of DNP-As adsorbed on 4 mg aluminum hydroxide gel Four weeks after the immunization,the spleens were excised from the mice and 5×10^7 spleen cells were transferred intravenously into the recipient mice which had been exposed to 600 rad of X-ray irradiation. Immediately after cell transfer, the recipients were then immunized intraperitoneally with 5 μg of DNP-As adsorbed on 4 mg aluminum hydroxide gel to induce adoptive secondary immune response. Further 4 weeks after the immunization of recipients, the spleens were excised from them and the spleen cell suspensions containing 5×10^6 cells/ml were cultured with or without a compound to be tested in 96-well micro-titer plates at 37° C. for 4 days. IgE and IgG secreted into the culture supernatant was each determined correspondingly by ELISA and the inhibitory effect was calculated according to the following equation. [formula]
# IgG = experiment: Determination of IgG (Igs other than IgE) produced in in vitro culture of spleen cells from DNP-As immunized mice (ELISA); type: cell-based, BALB/c mice; conditions: Mus musculus, 96 h, 4 days culture, 37° C.; for inhibition at 20 µg/mL: 20 μg/ml; for inhibition at 10 µg/mL: 10 μg/ml
# Method: as §1, §2
SMILES,inhibition at 20 µg/mL (IgE),inhibition at 20 µg/mL (IgG),inhibition at 10 µg/mL (IgE),inhibition at 10 µg/mL (IgG)
"CCOC(=O)c1c(NCc2ccccn2)c(C#N)c(=O)n2ccccc12 [S-1, 3-Cyano-1-ethoxycarbonyl-2-(2-pyridylmethylamino)-4H-quinolizin-4-one]",60%,13%,–,–
"CCOC(=O)c1c(NCc2cccnc2)c(C#N)c(=O)n2ccccc12 [S-6, 3-Cyano-1-ethoxycarbonyl-2-(3-pyridylmethylamino)-4H-quinolizin-4-one]",68%,16%,–,–
"CCOC(=O)c1c(NCc2cnc(C)cn2)c(C#N)c(=O)n2ccccc12 [S-16, 3-Cyano-1-ethoxycarbonyl-2-(5-methylpyrazinyl)-methylamino-4H-quinolizin-4-one]",68%,7%,–,–
"CCOC(=O)c1c(NCc2nccnc2C)c(C#N)c(=O)n2ccccc12 [S-15, 3-Cyano-1-ethoxycarbonyl-2-(3-methylpyrazinyl)methylamino-4H-quinolizin-4-one]",–,–,73%,3%
"CCOC(=O)c1c(NCc2cnccn2)c(C#N)c(=O)n2ccccc12 [S-14, 3-Cyano-1-ethoxycarbonyl-2-pyrazinylmethylamino-4H-quinolizin-4-one]",–,–,72%,1%
"CCOC(=O)c1c(NCc2cncc(C)n2)c(C#N)c(=O)n2ccccc12 [S-17, 3-Cyano-1-ethoxycarbonyl-2-(6-methylpyrazinyl)-methylamino-4H-quinolizin-4-one]",–,–,68%,12%
